Data: paper PMC8550792, “Evolution of kinase polypharmacology across HSP90 drug discovery” (Cell Chemical Biology, 2021)

Assays:
Assay in all cases: biochemical
Assay type in all cases: biochemical
382 unique human kinases [1] = molecular target: T1, 382 unique human kinases (Homo sapiens, UniProt Q8WXR4); details: kinase MYO3b, compound 10 uM; for remaining activity at 10 µM: read-out: % Enzyme Activity (relative to DMSO controls)
T1 construct: purchased Reaction Biology (HotSpot contract assay)
T1 sequence (Q8WXR4 1-1341): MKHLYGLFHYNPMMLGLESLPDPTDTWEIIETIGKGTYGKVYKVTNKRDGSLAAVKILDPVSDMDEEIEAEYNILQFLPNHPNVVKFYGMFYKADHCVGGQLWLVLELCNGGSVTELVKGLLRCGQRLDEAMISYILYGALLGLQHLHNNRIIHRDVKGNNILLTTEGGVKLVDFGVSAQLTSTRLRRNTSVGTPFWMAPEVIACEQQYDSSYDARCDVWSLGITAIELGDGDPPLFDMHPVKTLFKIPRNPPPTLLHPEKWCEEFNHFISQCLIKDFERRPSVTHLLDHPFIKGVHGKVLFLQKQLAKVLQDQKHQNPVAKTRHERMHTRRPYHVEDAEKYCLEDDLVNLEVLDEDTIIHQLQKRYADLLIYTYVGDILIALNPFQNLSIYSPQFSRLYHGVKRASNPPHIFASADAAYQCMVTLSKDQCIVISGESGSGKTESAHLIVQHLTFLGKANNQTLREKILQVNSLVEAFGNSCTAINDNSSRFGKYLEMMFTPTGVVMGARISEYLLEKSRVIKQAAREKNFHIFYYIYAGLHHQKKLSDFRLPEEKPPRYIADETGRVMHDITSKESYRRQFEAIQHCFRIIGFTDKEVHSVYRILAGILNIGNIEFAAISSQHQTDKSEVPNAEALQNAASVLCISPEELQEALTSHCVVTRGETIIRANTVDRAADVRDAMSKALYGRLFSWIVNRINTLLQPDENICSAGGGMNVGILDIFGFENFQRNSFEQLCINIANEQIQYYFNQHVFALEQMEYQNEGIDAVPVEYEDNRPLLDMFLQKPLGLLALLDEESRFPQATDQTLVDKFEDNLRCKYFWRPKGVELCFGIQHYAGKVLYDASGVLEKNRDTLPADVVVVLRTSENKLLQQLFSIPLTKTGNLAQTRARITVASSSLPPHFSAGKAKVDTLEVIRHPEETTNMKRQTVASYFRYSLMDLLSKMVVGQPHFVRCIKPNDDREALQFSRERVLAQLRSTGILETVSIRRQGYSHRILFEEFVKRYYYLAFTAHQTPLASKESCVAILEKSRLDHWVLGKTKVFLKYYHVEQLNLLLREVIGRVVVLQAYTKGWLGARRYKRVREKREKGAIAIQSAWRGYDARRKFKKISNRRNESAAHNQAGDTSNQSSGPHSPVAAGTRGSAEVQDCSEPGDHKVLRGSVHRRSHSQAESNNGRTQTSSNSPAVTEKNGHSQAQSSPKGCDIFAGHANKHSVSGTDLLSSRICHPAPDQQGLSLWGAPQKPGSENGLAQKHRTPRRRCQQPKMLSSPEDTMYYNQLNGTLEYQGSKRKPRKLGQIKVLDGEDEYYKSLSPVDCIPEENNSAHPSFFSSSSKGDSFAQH

382 unique human kinases [2] = molecular target: T2, 382 unique human kinases (Homo sapiens, UniProt Q9UPE1); details: MSSK1/STK23, 10 uM; for remaining activity at 10 µM: read-out: % Enzyme Activity (relative to DMSO controls)
T2 construct: purchased Reaction Biology (HotSpot contract assay)

382 unique human kinases [3] = molecular target: T3, 382 unique human kinases (Homo sapiens, UniProt P22607, V555M); details: FGFR3 (V555M), 10 uM; for remaining activity at 10 µM: read-out: % Enzyme Activity (relative to DMSO controls)
T3 construct: purchased Reaction Biology (HotSpot contract assay)

382 unique human kinases [4] = molecular target: T4, 382 unique human kinases (Homo sapiens, UniProt Q02763, Y897S); details: TIE2 (Y897S), 10 uM; for remaining activity at 10 µM: read-out: % Enzyme Activity (relative to DMSO controls)
T4 construct: purchased Reaction Biology (HotSpot contract assay)

382 unique human kinases [5] = molecular target: T5, 382 unique human kinases (Homo sapiens, UniProt P42684); details: ABL2/ARG, [ATP] 30 µM
T5 construct: purchased Reaction Biology (HotSpot contract assay)

382 unique human kinases [6] = molecular target: T6, 382 unique human kinases (Homo sapiens, UniProt O60674); details: JAK2, [ATP] 2.5 µM, compound 10 uM; for remaining activity at 10 µM: read-out: % Enzyme Activity (relative to DMSO controls)
T6 construct: purchased Reaction Biology (HotSpot contract assay)

382 unique human kinases [7] = molecular target: T7, 382 unique human kinases (Homo sapiens, UniProt Q96PY6); details: NEK1, 10 uM; for remaining activity at 10 µM: read-out: % Enzyme Activity (relative to DMSO controls)
T7 construct: purchased Reaction Biology (HotSpot contract assay)
T7 sequence (Q96PY6 1-1258): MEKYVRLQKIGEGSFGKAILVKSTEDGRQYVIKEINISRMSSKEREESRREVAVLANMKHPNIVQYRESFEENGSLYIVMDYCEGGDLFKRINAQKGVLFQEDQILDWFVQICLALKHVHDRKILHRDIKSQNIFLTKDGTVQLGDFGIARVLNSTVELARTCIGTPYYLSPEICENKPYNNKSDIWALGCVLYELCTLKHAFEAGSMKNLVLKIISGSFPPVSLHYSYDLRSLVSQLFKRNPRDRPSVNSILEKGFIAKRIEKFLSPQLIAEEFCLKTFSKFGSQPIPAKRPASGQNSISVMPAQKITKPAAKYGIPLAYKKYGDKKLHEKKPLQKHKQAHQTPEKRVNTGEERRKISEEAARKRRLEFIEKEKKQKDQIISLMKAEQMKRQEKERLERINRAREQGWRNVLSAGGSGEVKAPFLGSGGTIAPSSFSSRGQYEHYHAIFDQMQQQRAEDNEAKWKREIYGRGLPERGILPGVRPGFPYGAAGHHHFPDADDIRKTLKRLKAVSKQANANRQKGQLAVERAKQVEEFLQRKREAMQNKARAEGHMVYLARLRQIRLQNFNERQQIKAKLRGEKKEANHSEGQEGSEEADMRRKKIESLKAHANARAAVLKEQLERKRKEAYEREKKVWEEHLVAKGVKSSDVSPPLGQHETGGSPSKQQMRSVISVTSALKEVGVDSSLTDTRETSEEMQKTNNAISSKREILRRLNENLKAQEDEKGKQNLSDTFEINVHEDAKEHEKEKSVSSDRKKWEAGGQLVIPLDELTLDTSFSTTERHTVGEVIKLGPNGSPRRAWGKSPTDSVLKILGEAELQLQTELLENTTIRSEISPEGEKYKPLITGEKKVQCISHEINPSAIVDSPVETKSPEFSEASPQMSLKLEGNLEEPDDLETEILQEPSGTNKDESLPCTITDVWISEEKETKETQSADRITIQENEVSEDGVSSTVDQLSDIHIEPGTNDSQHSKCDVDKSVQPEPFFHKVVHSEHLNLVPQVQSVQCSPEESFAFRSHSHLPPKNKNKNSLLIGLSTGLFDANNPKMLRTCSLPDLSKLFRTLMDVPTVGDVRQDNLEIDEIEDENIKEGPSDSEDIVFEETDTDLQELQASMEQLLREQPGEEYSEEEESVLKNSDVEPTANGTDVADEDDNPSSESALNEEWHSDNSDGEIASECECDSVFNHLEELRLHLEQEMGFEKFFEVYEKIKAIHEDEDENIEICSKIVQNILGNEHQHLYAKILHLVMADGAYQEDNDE

[8] = compound 10 uM, read-out: % Enzyme Activity (relative to DMSO controls)

T2 sequence (Q9UPE1 whole entry): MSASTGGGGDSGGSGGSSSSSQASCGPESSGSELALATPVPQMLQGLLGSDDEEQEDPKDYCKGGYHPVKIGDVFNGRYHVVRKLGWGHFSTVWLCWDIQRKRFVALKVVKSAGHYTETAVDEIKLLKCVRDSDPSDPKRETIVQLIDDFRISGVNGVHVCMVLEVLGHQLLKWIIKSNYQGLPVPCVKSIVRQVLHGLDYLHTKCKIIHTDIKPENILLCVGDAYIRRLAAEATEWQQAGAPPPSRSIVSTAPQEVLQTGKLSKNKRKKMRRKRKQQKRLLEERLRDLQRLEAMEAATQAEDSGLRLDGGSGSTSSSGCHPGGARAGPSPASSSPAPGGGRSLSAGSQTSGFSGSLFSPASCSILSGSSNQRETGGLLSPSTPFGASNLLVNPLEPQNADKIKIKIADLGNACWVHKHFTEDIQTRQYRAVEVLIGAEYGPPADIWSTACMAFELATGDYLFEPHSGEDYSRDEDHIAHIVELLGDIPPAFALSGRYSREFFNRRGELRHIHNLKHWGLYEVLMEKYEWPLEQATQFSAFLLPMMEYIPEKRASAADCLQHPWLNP
T4 sequence (Q02763 23-1124 Y897S): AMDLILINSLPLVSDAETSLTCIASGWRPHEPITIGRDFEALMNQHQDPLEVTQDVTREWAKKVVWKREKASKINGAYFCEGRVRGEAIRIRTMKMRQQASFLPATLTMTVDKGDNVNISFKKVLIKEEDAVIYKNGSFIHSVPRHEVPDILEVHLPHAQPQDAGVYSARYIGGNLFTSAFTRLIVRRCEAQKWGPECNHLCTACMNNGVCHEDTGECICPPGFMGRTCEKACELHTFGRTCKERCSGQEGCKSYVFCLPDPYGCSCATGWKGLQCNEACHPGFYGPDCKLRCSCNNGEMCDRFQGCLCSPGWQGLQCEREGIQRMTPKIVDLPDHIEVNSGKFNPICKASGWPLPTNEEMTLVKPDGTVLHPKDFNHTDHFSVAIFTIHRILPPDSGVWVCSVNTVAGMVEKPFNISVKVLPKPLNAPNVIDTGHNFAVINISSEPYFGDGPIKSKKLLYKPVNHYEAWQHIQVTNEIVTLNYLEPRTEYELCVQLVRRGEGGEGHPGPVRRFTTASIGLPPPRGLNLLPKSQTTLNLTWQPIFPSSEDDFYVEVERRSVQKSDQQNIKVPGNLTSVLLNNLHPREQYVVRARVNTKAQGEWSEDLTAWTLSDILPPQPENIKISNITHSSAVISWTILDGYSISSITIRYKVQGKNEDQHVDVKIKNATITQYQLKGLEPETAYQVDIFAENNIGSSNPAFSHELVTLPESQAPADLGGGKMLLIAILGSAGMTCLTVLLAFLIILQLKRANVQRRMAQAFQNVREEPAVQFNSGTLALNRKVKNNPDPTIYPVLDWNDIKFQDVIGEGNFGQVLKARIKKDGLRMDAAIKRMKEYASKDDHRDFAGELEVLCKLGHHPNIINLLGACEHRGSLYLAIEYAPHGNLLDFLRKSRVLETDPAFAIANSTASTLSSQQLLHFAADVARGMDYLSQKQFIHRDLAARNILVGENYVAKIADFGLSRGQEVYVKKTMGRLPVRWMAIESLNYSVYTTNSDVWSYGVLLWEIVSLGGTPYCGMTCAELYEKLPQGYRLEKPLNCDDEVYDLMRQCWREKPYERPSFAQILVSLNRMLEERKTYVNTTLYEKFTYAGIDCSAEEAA
T5 sequence (P42684 whole entry): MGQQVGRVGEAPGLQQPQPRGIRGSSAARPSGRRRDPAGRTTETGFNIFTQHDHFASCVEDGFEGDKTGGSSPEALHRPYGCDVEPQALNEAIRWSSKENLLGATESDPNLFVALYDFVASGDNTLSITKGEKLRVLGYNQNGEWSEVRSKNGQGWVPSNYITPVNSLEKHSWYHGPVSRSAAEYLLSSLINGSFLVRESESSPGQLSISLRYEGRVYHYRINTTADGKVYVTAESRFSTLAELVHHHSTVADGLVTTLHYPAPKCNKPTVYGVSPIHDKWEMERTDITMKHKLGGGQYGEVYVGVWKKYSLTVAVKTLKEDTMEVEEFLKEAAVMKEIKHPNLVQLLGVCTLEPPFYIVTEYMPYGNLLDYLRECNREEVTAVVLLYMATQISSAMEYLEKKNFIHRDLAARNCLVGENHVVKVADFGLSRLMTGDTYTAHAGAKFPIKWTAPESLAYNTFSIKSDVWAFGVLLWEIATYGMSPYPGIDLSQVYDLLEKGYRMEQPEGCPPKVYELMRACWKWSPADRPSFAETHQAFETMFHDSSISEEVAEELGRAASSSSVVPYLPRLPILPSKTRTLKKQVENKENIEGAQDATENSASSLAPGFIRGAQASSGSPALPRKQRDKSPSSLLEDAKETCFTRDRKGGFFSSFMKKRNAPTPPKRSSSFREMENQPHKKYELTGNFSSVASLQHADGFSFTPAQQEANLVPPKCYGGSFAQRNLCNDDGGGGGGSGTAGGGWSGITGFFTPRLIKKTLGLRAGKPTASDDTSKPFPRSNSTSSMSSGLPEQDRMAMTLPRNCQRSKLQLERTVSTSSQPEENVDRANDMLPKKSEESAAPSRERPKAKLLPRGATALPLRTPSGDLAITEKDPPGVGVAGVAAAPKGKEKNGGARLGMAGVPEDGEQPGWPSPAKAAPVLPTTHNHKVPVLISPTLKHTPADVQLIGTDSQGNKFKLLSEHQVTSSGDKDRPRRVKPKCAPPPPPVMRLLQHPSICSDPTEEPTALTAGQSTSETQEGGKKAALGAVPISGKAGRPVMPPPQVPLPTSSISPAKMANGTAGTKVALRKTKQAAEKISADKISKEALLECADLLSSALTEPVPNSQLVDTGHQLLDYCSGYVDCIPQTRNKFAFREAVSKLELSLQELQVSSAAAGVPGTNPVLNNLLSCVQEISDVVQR
T6 sequence (O60674 whole entry): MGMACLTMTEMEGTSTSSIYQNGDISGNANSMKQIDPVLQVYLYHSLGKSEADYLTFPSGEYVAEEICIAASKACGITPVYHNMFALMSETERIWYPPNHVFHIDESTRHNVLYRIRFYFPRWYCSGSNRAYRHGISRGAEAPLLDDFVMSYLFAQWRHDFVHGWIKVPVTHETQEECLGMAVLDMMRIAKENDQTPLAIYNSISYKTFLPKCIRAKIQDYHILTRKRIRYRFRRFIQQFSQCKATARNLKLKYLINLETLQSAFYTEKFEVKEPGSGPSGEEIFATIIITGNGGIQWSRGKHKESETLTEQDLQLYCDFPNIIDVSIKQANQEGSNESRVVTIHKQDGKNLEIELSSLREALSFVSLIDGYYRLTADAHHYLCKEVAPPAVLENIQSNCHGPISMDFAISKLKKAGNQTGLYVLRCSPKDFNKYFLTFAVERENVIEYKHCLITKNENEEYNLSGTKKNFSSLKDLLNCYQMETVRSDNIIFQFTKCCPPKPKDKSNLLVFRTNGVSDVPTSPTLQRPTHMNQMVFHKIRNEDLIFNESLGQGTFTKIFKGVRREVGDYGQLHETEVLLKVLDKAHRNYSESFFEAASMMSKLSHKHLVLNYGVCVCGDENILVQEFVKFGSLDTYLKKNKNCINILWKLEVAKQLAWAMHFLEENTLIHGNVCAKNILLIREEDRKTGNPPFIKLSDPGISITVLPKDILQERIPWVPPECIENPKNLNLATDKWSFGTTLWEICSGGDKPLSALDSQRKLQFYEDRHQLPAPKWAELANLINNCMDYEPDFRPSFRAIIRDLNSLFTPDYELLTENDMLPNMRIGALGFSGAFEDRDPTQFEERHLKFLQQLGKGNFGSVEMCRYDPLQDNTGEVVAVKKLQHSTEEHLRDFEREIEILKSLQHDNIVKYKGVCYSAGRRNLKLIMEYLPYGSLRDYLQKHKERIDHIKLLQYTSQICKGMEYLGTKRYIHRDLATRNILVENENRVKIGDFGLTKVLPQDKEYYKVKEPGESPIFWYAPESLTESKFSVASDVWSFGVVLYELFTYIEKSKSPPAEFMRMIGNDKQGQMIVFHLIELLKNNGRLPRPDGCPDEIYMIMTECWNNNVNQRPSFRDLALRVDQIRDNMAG
T3 sequence (P22607 23-806 V555M): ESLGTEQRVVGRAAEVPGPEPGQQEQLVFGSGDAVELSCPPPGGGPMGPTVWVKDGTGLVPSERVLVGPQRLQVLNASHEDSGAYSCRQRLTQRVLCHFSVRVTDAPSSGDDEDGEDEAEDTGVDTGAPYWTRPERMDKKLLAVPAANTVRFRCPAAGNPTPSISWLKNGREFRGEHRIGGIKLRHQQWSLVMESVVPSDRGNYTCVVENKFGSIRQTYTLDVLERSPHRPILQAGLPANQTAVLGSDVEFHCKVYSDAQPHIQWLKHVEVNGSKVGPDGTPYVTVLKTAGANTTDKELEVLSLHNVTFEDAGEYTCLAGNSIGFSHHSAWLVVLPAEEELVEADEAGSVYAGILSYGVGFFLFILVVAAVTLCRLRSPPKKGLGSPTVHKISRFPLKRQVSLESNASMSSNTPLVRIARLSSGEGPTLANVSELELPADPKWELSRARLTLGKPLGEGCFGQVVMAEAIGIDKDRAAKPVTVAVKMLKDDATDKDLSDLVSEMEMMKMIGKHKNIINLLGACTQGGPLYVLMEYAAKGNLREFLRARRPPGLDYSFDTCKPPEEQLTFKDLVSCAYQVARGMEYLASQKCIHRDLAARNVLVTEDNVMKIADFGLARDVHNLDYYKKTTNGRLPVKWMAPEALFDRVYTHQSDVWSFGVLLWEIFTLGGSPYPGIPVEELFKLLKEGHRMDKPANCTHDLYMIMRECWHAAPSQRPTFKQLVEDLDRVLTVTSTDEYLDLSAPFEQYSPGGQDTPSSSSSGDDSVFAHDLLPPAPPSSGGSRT

SMILES | remaining activity at 10 µM (382 unique human kinases [1]) [%] | remaining activity at 10 µM (382 unique human kinases [2]) [%] | remaining activity at 10 µM (382 unique human kinases [3]) [%] | remaining activity at 10 µM (382 unique human kinases [4]) [%] | remaining activity at 1 µM (382 unique human kinases [5]; compound 1 uM, read-out: % Enzyme Activity (relative to DMSO controls)) [%] | remaining activity at 10 µM (382 unique human kinases [5]; [8]) [%] | remaining activity at 10 µM (382 unique human kinases [6]) [%] | remaining activity at 10 µM (382 unique human kinases [7]) [%] | % Enzyme Activity (relative to DMSO controls) (382 unique human kinases [1]) [%] | % Enzyme Activity (relative to DMSO controls) (382 unique human kinases [2]) [%] | % Enzyme Activity (relative to DMSO controls) (382 unique human kinases [3]) [%] | % Enzyme Activity (relative to DMSO controls) (382 unique human kinases [4]) [%] | % Enzyme Activity (relative to DMSO controls) (382 unique human kinases [5]; compound 10 uM) [%] | % Enzyme Activity (relative to DMSO controls) (382 unique human kinases [6]) [%] | % Enzyme Activity (relative to DMSO controls) (382 unique human kinases [7]) [%]
CC(C)c1cc(-c2n[nH]c(=O)n2-c2ccc3c(ccn3C)c2)c(O)cc1O [Ganetespib (STA9090)] | 88.2 | 73.6 | 65.2 |  |  |  |  |  |  |  |  |  |  |  | 
CC(C)c1cc(-c2n[nH]c(=O)n2-c2ccc3c(ccn3C)c2)c(O)cc1O [Ganetespib] |  |  |  | 98.7 | 12.9 | 1.12 | 57.1 | 95.7 |  |  |  |  |  |  | 
CCNC(=O)c1noc(-c2cc(C(C)C)c(O)cc2O)c1-c1ccc(CN2CCOCC2)cc1 [Luminespib (AUY-922)] | 113 | 95.8 | 125 |  |  |  |  |  | 111.45 | 95.48 | 124.56 |  |  |  | 
CCNC(=O)c1noc(-c2cc(C(C)C)c(O)cc2O)c1-c1ccc(CN2CCOCC2)cc1 [Luminespib] |  |  |  | 117 |  | 8.16 | 99.6 | 110 |  |  |  | 116.81 | 7.82 | 97.09 | 102.76
